Results from ChEMBL document CHEMBL1201862, “PubChem BioAssay data set” (2004).
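Results reflect a 48-hour exposure of cells in 96-well plates to compound at five concentrations. At the GI50, growth is halved.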 Active and inactive are the calls of the source. Cut-off read from the data, not from the text of the source: active = GI50 up to about 1.1 µM and inactive = higher.

Columns and labels:
Test in all cases: DTP human tumour cell line panel, 48 h
786-0 = tested on: 786-0
A498 = tested on: A498
A549 = tested on: A549
ACHN = tested on: ACHN
BT-549 = tested on: BT-549
CAKI-1 = tested on: CAKI-1
CCRF-CEM = tested on: CCRF-CEM
COLO 205 = tested on: COLO 205
DU-145 = tested on: DU-145
EKVX = tested on: EKVX
HCC 2998 = tested on: HCC 2998
HCT-116 = tested on: HCT-116
HCT-15 = tested on: HCT-15
HL-60 = tested on: HL-60
HOP-62 = tested on: HOP-62
HOP-92 = tested on: HOP-92
HT-29 = tested on: HT-29
Hs-578T = tested on: Hs-578T
IGROV-1 = tested on: IGROV-1
K562 = tested on: K562
KM12 = tested on: KM12
M14 = tested on: M14
MCF7 = tested on: MCF7
MDA-MB-231 = tested on: MDA-MB-231
MDA-MB-435 = tested on: MDA-MB-435
MDA-N = tested on: MDA-N
MOLT-4 = tested on: MOLT-4
Malme-3M = tested on: Malme-3M
NCI-H226 = tested on: NCI-H226
NCI-H23 = tested on: NCI-H23
NCI-H460 = tested on: NCI-H460
NCI-H522 = tested on: NCI-H522
NCI/ADR-RES = tested on: NCI/ADR-RES
OVCAR-3 = tested on: OVCAR-3
OVCAR-4 = tested on: OVCAR-4
OVCAR-5 = tested on: OVCAR-5
OVCAR-8 = tested on: OVCAR-8
PC-3 = tested on: PC-3
RPMI-8226 = tested on: RPMI-8226
RXF 393 = tested on: RXF 393
SF-268 = tested on: SF-268
SF-295 = tested on: SF-295
SF-539 = tested on: SF-539
SK-MEL-28 = tested on: SK-MEL-28
SK-MEL-2 = tested on: SK-MEL-2
SK-MEL-5 = tested on: SK-MEL-5
SK-OV-3 = tested on: SK-OV-3
SN12C = tested on: SN12C
SNB-19 = tested on: SNB-19
SR = tested on: SR
T47D = tested on: T47D
TK-10 = tested on: TK-10
U-251 = tested on: U-251
UACC-257 = tested on: UACC-257
UACC-62 = tested on: UACC-62
UO-31 = tested on: UO-31
SNB-75 = tested on: SNB-75
SW-620 = tested on: SW-620
LOX IMVI = tested on: LOX IMVI

Measured: GI50

CC1C(OS(=O)(=O)c2ccc3nc(S)sc3c2)CC2C3(C)CCC2(C(C)C(=O)O)C(O)C13 (stereo not given)
12.5 µM: HCT-15
inactive: 786-0 20.2 µM | A498 54.7 µM | A549 21.7 µM | ACHN 15.9 µM | BT-549 24.9 µM | CAKI-1 22 µM | CCRF-CEM 3.85 µM | COLO 205 20.7 µM | DU-145 15.7 µM | EKVX 31.3 µM | HCC 2998 35.6 µM | HCT-116 13.6 µM | HL-60 23.7 µM | HOP-62 29.1 µM | HOP-92 26.6 µM | HT-29 17.5 µM | Hs-578T 48.1 µM | IGROV-1 11.4 µM | K562 26.2 µM | KM12 19.9 µM | M14 32.4 µM | MCF7 27.6 µM | MDA-MB-231 21.2 µM | MDA-MB-435 17.2 µM | MDA-N 22.4 µM | MOLT-4 16.9 µM | Malme-3M 27.2 µM | NCI-H226 19.8 µM | NCI-H23 17.9 µM | NCI-H460 46.9 µM | NCI-H522 3.29 µM | NCI/ADR-RES 33 µM | OVCAR-3 14.5 µM | OVCAR-4 18.6 µM | OVCAR-5 25.5 µM | OVCAR-8 20.1 µM | PC-3 27.4 µM | RPMI-8226 11.5 µM | RXF 393 21.7 µM | SF-268 27.4 µM | SF-295 28 µM | SF-539 17.6 µM | SK-MEL-28 26.8 µM | SK-MEL-2 29.2 µM | SK-MEL-5 14.8 µM | SK-OV-3 40.7 µM | SN12C 28 µM | SNB-19 54.1 µM | SR 11.9 µM | T47D 21.2 µM | TK-10 44.5 µM | U-251 16.2 µM | UACC-257 75.7 µM | UACC-62 21.9 µM | UO-31 17.4 µM

CC(=O)O[C@H]1C(=O)[C@@]2(C)[C@H]([C@H](OC(=O)c3cccc(C(F)(F)F)c3)[C@]3(O)C[C@H](OC(=O)[C@H](O)[C@@H](NC(=O)c4ccccc4)c4ccccc4)C(C)=C1C3(C)C)[C@]1(OC(C)=O)CO[C@@H]1C[C@@H]2O
0.268 µM: HCT-15
inactive: NCI/ADR-RES 1.4 µM | SK-MEL-28 1.89 µM
active: 786-0 0.00439 µM | A498 0.131 µM | A549 0.00261 µM | ACHN 0.377 µM | BT-549 0.035 µM | CAKI-1 0.906 µM | CCRF-CEM < 0.0025 µM | COLO 205 < 0.0025 µM | DU-145 0.00857 µM | HCC 2998 0.0111 µM | HCT-116 < 0.0025 µM | HL-60 < 0.0025 µM | HOP-62 0.0162 µM | HOP-92 0.52 µM | HT-29 < 0.0025 µM | Hs-578T < 0.0025 µM | IGROV-1 0.00703 µM | K562 < 0.0025 µM | KM12 < 0.0025 µM | M14 0.00306 µM | MCF7 < 0.0025 µM | MDA-MB-231 0.0361 µM | MDA-MB-435 < 0.0025 µM | MDA-N < 0.0025 µM | MOLT-4 0.00427 µM | Malme-3M 0.00318 µM | NCI-H226 0.00946 µM | NCI-H23 0.0115 µM | NCI-H460 0.00469 µM | NCI-H522 < 0.0025 µM | OVCAR-3 < 0.0025 µM | OVCAR-4 0.336 µM | OVCAR-5 0.00475 µM | OVCAR-8 0.00252 µM | PC-3 < 0.0025 µM | RPMI-8226 < 0.0025 µM | RXF 393 0.0222 µM | SF-268 0.223 µM | SF-295 0.0387 µM | SF-539 < 0.0025 µM | SK-MEL-5 < 0.0025 µM | SK-OV-3 0.0288 µM | SN12C 0.00603 µM | SNB-19 0.0889 µM | SNB-75 0.00434 µM | SR < 0.0025 µM | SW-620 < 0.0025 µM | T47D 0.00455 µM | TK-10 0.175 µM | U-251 < 0.0025 µM | UACC-257 0.108 µM | UACC-62 0.00526 µM | UO-31 0.918 µM

Nc1nc(N)c(N=O)c(OCC2CCCCC2)n1
active: ACHN 1.06 µM
inactive: 786-0 11.6 µM | A498 18.1 µM | A549 17.8 µM | BT-549 7.82 µM | CAKI-1 7.55 µM | CCRF-CEM 5.36 µM | COLO 205 12.3 µM | DU-145 7.45 µM | EKVX 20.5 µM | HCC 2998 14.9 µM | HCT-116 9.12 µM | HL-60 14.7 µM | HOP-62 14.6 µM | HOP-92 7.83 µM | HT-29 9.64 µM | Hs-578T 6.73 µM | IGROV-1 3.23 µM | K562 21.9 µM | KM12 18.7 µM | LOX IMVI 5.53 µM | M14 8.47 µM | MCF7 4.3 µM | MDA-MB-231 5.02 µM | MDA-MB-435 14.3 µM | MDA-N 11 µM | MOLT-4 6.64 µM | NCI-H226 9.4 µM | NCI-H23 12.2 µM | NCI-H460 6.17 µM | NCI-H522 5.96 µM | NCI/ADR-RES 18.9 µM | OVCAR-3 8.47 µM | OVCAR-4 10 µM | OVCAR-5 9.71 µM | OVCAR-8 15 µM | PC-3 6.41 µM | RPMI-8226 6.52 µM | RXF 393 7.1 µM | SF-268 8.49 µM | SF-295 13 µM | SF-539 8.91 µM | SK-MEL-28 15.7 µM | SK-MEL-2 11 µM | SK-MEL-5 9.73 µM | SK-OV-3 19 µM | SN12C 5.15 µM | SNB-19 26.8 µM | SNB-75 5.01 µM | SR 4.76 µM | SW-620 24 µM | T47D 5.57 µM | TK-10 6.64 µM | U-251 15.7 µM | UACC-257 9.02 µM | UACC-62 6.98 µM | UO-31 5.16 µM
5.5 µM: HCT-15

O=C1C(Cl)=C(N(C(=O)c2ccccc2)C(=O)c2ccccc2)C(=O)c2ccccc21
inactive: 786-0 14.5 µM | A498 > 100 µM | A549 16.4 µM | ACHN 3.17 µM | BT-549 9.04 µM | CAKI-1 10.5 µM | CCRF-CEM 2.84 µM | COLO 205 16.1 µM | DU-145 > 100 µM | EKVX 5.74 µM | HCC 2998 12.1 µM | HCT-116 4.12 µM | HOP-62 49 µM | HOP-92 13.1 µM | HT-29 24.7 µM | Hs-578T 4.8 µM | IGROV-1 19.4 µM | K562 3.4 µM | KM12 3.38 µM | LOX IMVI 25.6 µM | M14 14.4 µM | MCF7 10.1 µM | MDA-MB-231 9.71 µM | MDA-MB-435 12.6 µM | MDA-N 13.1 µM | MOLT-4 55 µM | NCI-H226 > 100 µM | NCI-H23 5.42 µM | NCI-H460 5.12 µM | NCI-H522 5.7 µM | NCI/ADR-RES 29.2 µM | OVCAR-3 10.9 µM | OVCAR-5 12.2 µM | OVCAR-8 54 µM | PC-3 9.18 µM | RPMI-8226 2.05 µM | RXF 393 3.66 µM | SF-268 2.48 µM | SF-295 28.2 µM | SF-539 4.3 µM | SK-MEL-28 14.9 µM | SK-MEL-2 11.4 µM | SK-MEL-5 3.6 µM | SK-OV-3 40.6 µM | SN12C 18.3 µM | SNB-19 26.6 µM | SNB-75 3.68 µM | SR 15.5 µM | SW-620 5.15 µM | T47D 4.68 µM | TK-10 21.2 µM | U-251 5.98 µM | UACC-257 14.9 µM | UACC-62 5.12 µM | UO-31 3.39 µM
active: HL-60 1.08 µM
2.94 µM: HCT-15

Cn1c(-c2cccs2)cc(-c2cccs2)c1-c1ccco1
active: MCF7 0.473 µM | T47D 1.06 µM
14.4 µM: HCT-15
inactive: 786-0 69.2 µM | A498 27.7 µM | A549 50.8 µM | ACHN > 93.3 µM | BT-549 > 100 µM | CAKI-1 11.4 µM | CCRF-CEM 28.8 µM | COLO 205 27.5 µM | DU-145 > 100 µM | EKVX 16.6 µM | HCC 2998 26.6 µM | HCT-116 27.7 µM | HL-60 23.9 µM | HOP-62 > 92 µM | HOP-92 63 µM | HT-29 > 67.6 µM | Hs-578T 26.5 µM | IGROV-1 > 48.9 µM | K562 10.2 µM | KM12 6.07 µM | LOX IMVI 22.7 µM | M14 26.4 µM | MDA-MB-231 51.4 µM | MDA-MB-435 7.16 µM | MDA-N 39.5 µM | MOLT-4 1.8 µM | NCI-H226 > 100 µM | NCI-H23 3.02 µM | NCI-H460 38.7 µM | NCI-H522 21.2 µM | NCI/ADR-RES 40.7 µM | OVCAR-3 19.2 µM | OVCAR-4 1.7 µM | OVCAR-5 > 100 µM | OVCAR-8 > 100 µM | PC-3 72.6 µM | RPMI-8226 31 µM | RXF 393 27.9 µM | SF-268 > 66.4 µM | SF-295 29.4 µM | SF-539 > 100 µM | SK-MEL-28 49.1 µM | SK-MEL-2 30.3 µM | SK-MEL-5 23.8 µM | SK-OV-3 > 100 µM | SN12C > 94.6 µM | SNB-19 > 100 µM | SNB-75 31.8 µM | SR 14.8 µM | SW-620 50.5 µM | TK-10 41.7 µM | U-251 56.1 µM | UACC-257 39.9 µM | UACC-62 30.9 µM | UO-31 31.5 µM
